The values below come from patent US7285552B2, “Drugs containing triazaspiro[5.5]undecane derivatives as the active ingredient” (Ono Pharmaceuticals Co., Ltd., priority 2001, dated 2007).

Format in all cases: cell-based
The subject of one test is HIV-189.6. The test can be described thus: Inhibiting activity to HIV-1 infection to human PBMC (p24 antigen, EIA), HIV-1 89.6. The procedure: (§1) Human PBMC (peripheral blood mononuclear cell) was isolated from HIV-negative healthy persons by a Ficol-Hipaque density-gradient centrifugation and incubated for 3 days in the presence of 10 μg/ml PHA (phytohemagglutinin). PHA-stimulated PBMC was suspended in RPMI 1640 containing 10% serum to give a density of 1×10^5 cells/ml and poured into a 96-well microplate. Furthermore, in the presence of a sole test compound in various concentrations or in the co-presence with other anti-HIV inhibitor (such as AZT (zidovudin) or AMD 3100), various HIV-1 cell lines of 50 TCID50 (such as HIV-1LAI, HIV-1NL4-3, HIV-1BaL, HIV-1JRFL, HIV-189.6, HIV-1 HIV-1ERS104pre, HIV-1JSL, HIV-1MM, HIV-1TM and HIV-1MOKW) were exposed. After being incubated for 7 days, the amount of HIV-1p24 antigen on the supernatant liquid of the incubation was measured by an EIA method using Lumipulse F (Fuji Rebio).
(§2) Inhibiting effect to HIV-1 infection to human PBMC was investigated by the joint use of the compound of Example 2(1) with AMD 3100. The compound of Example 2(1) in various concentrations and AMD 3100 were added either solely or combinably and an assay was carried out. Inhibiting effects of both compounds when the p24 amount where the compounds are not added is defined as 100% are shown in terms of % control.

Test [1] relates to Mixed Virus of HIV-1BaL and HIV-1NL4-3 (1:1). The test can be described thus: Inhibiting activity to HIV-1 infection to human PBMC (p24 antigen, EIA), mixed virus. To be noted: HIV-1BaL + HIV-1NL4-3 (1:1). How it is done:
as §1, §2

For the next test, the system named is HIV-1MOKW. In words: Inhibiting activity to HIV-1 infection to human PBMC (p24 antigen, EIA), wild-type HIV-1. Conditions: Human immunodeficiency virus 1, read-out: IC50, inhibiting effect to infection to human PBMC. The procedure: as §1
(§3) Inhibiting effect of the compound of Example 2(1) to human PBMC infected by wild-type HIV-1 (HIV-1MOKW) and by multidrug resistant HIV-1 (HIV-1JSL and HIV-1MM) to reverse transcriptase inhibitor and protease inhibitor was investigated.

In a further test the test system is HIV-1BaL. In words: Inhibiting activity to HIV-1 infection to human PBMC (p24 antigen, EIA), HIV-1BaL. How it is done:
as §1
Inhibiting effect to human PBMC infected by HIV-1 HIV-1BaL by the joint use of the compound of Example 2(1) and saquinavir (SQV) which is an anti-HIV inhibitor was investigated. Inhibiting effects of both compounds when the p24 amount where the compounds are not added is defined as 100% are shown in terms of % control.
Inhibiting effect to human PBMC infected by HIV-1 HIV-1BaL by the joint use of the compound of Example 75(54) and saquinavir (SQV) which is an anti-HIV inhibitor […] was investigated. Inhibiting effects of both compounds when the p24 amount where the compounds are not added is defined as 100% are shown in terms of % control.

In the next test the test system is HIV-1MM. The test can be described thus: Inhibiting activity to HIV-1 infection to human PBMC (p24 antigen, EIA), multidrug resistant HIV-1. To be noted: Human immunodeficiency virus 1, PBMC, read-out: IC50, inhibiting effect to infection to human PBMC. How it is done:
as §1, §3

Another test deals with HIV-1JSL. Described as above. To be noted: Human immunodeficiency virus 1, PBMC, read-out: IC50, inhibiting effect to infection to human PBMC. The procedure: as §1, §3
[2] abbreviates: Example 2(1) 0.1 μM + AMD 3100 0.01 μM.
The mark [3] stands for this setting: Example 2(1) 0.1 μM + AMD 3100 0.1 μM.
The mark [4] stands for this setting: Example 2(1) 1 μM + AMD 3100 0.01 μM.
The mark [5] stands for this setting: Example 2(1) 1 μM + AMD 3100 0.1 μM.

On to `c1cc(CN2CCCNCCNCCCNCC2)ccc1CN1CCCNCCNCCCNCC1` [AMD 3100, reference compound], for which the “p24 amount, % control (no compound = 100%)” value in the test with HIV-189.6 (AMD 3100 0.01 μM alone) came out at 58.3 % control; in the test with HIV-189.6 (AMD 3100 0.1 μM alone) it was 6.9 % control; in test [1] (AMD 3100 0.01 μM alone), 59.1 % control; in test [1] (AMD 3100 0.1 μM alone), 44.2 % control.

On to `CCCCN1C(=O)C(CC2CCCCC2)NC(=O)C12CCN(Cc1ccc3c(c1)OCCO3)CC2.Cl` (stereo not shown) [Example 2(1), 9-(1,4-benzodioxan-6-ylmethyl)-1-butyl-3-cyclohexylmethyl-2,5-dioxo-1,4,9-triazaspiro[5.5]undecane.hydrochloride], for which the IC50 (as a rule, the concentration that gives 50% inhibition) turned out to be 40 ± 29 nM with HIV-1MOKW, 48 ± 62 nM in the test on HIV-1MM and 64 ± 11 nM in the test with HIV-1JSL. For the same compound, the “p24 amount, % control (no compound = 100%)” value in the test on HIV-189.6 (setting [2]) worked out at 38.0 % control; with HIV-189.6 (setting [3]) it was 6.0 % control; in the test on HIV-189.6 (Example 2(1) 0.1 μM alone) it was 72.0 % control; with HIV-189.6 (setting [4]), 15.1 % control; in the test on HIV-189.6 (setting [5]), 0.7 % control; in the test with HIV-189.6 (Example 2(1) 1 μM alone) it was 64.5 % control. For the same compound, the “p24 amount, % control (no compound = 100%)” value with HIV-1BaL (Example 2(1) 0.1 μM + Saquinavir 0.01 μM) is listed as 44.3 % control; in the test on HIV-1BaL (Example 2(1) 0.1 μM alone), 75.4 % control; in test [1] (setting [2]), 32.1 % control; in test [1] (setting [3]), 17.8 % control; in test [1] (Example 2(1) 0.1 μM alone), 63.8 % control; in test [1] (setting [4]), 10.5 % control. Further, the “p24 amount, % control (no compound = 100%)” value in test [1] (setting [5]) came to 1.5 % control; in test [1] (Example 2(1) 1 μM alone), 52.4 % control.

`CCCCN1C(=O)[C@@H]([C@H](O)C2CCCCC2)NC(=O)C12CCN(Cc1ccc(Oc3ccc(C(=O)O)cc3)cc1)CC2.Cl` [Example 75(54), (3R)-1-butyl-2,5-dioxo-3-((1R)-1-hydroxy-1-cyclohexylmethyl)-9-(4-(4-carboxyphenyloxy)phenylmethyl)-1,4,9-triazaspiro[5.5]undecane.hydrochloride]: the “p24 amount, % control (no compound = 100%)” value came to 66.0 % control in the test on HIV-1BaL (Example 75(54) 0.2 nM + Saquinavir 1 nM); 52.0 % control in the test with HIV-1BaL (Example 75(54) 0.2 nM + Saquinavir 5 nM); 5.7 % control in the test with HIV-1BaL (Example 75(54) 0.2 nM + Saquinavir 25 nM); 64.2 % control with HIV-1BaL (Example 75(54) 0.2 nM alone); 32.8 % control in the test with HIV-1BaL (Example 75(54) 1 nM + Saquinavir 1 nM); 29.3 % control in the test with HIV-1BaL (Example 75(54) 1 nM + Saquinavir 5 nM). For the same compound, the “p24 amount, % control (no compound = 100%)” value came to 3.8 % control with HIV-1BaL (Example 75(54) 1 nM + Saquinavir 25 nM); 34.2 % control in the test with HIV-1BaL (Example 75(54) 1 nM alone); 10.8 % control with HIV-1BaL (Example 75(54) 5 nM + Saquinavir 1 nM); 6.1 % control with HIV-1BaL (Example 75(54) 5 nM + Saquinavir 5 nM); 1.6 % control in the test on HIV-1BaL (Example 75(54) 5 nM + Saquinavir 25 nM); 10.6 % control in the test with HIV-1BaL (Example 75(54) 5 nM alone).

For the compound `CC(C)(C)NC(=O)[C@@H]1C[C@@H]2CCCC[C@@H]2CN1C[C@@H](O)[C@H](Cc1ccccc1)NC(=O)[C@H](CC(N)=O)NC(=O)c1ccc2ccccc2n1` [Saquinavir, saquinavir, reference compound], the “p24 amount, % control (no compound = 100%)” value in the test on HIV-1BaL (Saquinavir 1 nM alone) is on record as 78.1 % control; in the test with HIV-1BaL (Saquinavir 5 nM alone) it was 67.7 % control; in the test on HIV-1BaL (Saquinavir 0.01 μM alone), 53.8 % control; with HIV-1BaL (Saquinavir 25 nM alone), 5.9 % control.
